Paper PMC3975886, “Structural characteristics of an insect group I chitinase, an enzyme indispensable to moulting” (Acta Crystallographica Section D: Biological Crystallography, 2014)

Molecular target: OfChtI-CAD (Ostrinia furnacalis, UniProt Q2V6H4, E148Q)
Assay: isothermal titration calorimetry, single-site model
Assay type: binding
Settings: 50 mM HEPES pH 8.0, 303 K
Excerpt: isothermal titration calorimetry, single-site model on OfChtI-CAD

Sequence of OfChtI-CAD (Q2V6H4 19-407, stated change not applied): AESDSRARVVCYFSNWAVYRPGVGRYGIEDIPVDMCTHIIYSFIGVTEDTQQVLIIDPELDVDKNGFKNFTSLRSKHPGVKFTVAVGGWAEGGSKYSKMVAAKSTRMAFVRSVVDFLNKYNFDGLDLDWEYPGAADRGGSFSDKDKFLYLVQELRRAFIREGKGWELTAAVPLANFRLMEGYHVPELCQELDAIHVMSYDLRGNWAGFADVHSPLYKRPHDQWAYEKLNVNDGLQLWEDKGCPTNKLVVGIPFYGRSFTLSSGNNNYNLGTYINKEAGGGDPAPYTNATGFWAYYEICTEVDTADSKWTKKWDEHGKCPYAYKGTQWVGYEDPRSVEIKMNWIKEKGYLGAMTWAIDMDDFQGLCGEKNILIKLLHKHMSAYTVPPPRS

| Structure (SMILES) | Kd [µM] |
| --- | --- |
| CC(=O)N[C@H]1[C@H](O[C@H]2[C@H](O)[C@@H](NC(C)=O)[C@H](O[C@H]3[C@H](O)[C@@H](NC(C)=O)C(O)O[C@@H]3CO)O[C@@H]2CO)O[C@H](CO)[C@@H](O[C@@H]2O[C@H](CO)[C@@H](O[C@@H]3O[C@H](CO)[C@@H](O[C@@H]4O[C@H](CO)[C@@H](O)[C@H](O)[C@H]4NC(C)=O)[C@H](O)[C@H]3NC(C)=O)[C@H](O)[C@H]2NC(C)=O)[C@@H]1O (stereo partly drawn) [(GlcNAc)6, N′,N′′,N′′′,N′′′′,N′′′′′, N′′′′′′-hexaacetylchitohexaose] | 0.48 ± 0.09 |
| CC(=O)N[C@H]1[C@H](O[C@H]2[C@H](O)[C@@H](NC(C)=O)C(O)O[C@@H]2CO)O[C@H](CO)[C@@H](O[C@@H]2O[C@H](CO)[C@@H](O[C@@H]3O[C@H](CO)[C@@H](O)[C@H](O)[C@H]3NC(C)=O)[C@H](O)[C@H]2NC(C)=O)[C@@H]1O (stereo partly drawn) [(GlcNAc)4] | 11.3 ± 1.5 |
| CC(=O)N[C@H]1[C@H](O[C@H]2[C@H](O)[C@@H](NC(C)=O)[C@H](O[C@H]3[C@H](O)[C@@H](NC(C)=O)C(O)O[C@@H]3CO)O[C@@H]2CO)O[C@H](CO)[C@@H](O[C@@H]2O[C@H](CO)[C@@H](O[C@@H]3O[C@H](CO)[C@@H](O)[C@H](O)[C@H]3NC(C)=O)[C@H](O)[C@H]2NC(C)=O)[C@@H]1O (stereo partly drawn) [(GlcNAc)5] | 2 ± 0.2 |
